Calls of active or inactive are those of the source.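 The calls were made as follows: active = mean half-maximal activating concentration from the dose-response fit at or below a set limit; inactive = the rest.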
Each compound was assayed against CHO-XBP1 luciferase reporter, IRE1-XBP1 UPR activation (assay: activators of IRE1-XBP1 UPR arm, dose response, counter-screen for apoptotic UPR arm activators, CHO-XBP1 cells, luminescence (AID 489040);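 also: reporter read after six hours of compound exposure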).
`COc1ccc(-c2nc(-c3ccccc3)nc(Cl)c2C#N)cc1` was tested, and the EC50 was “inactive”. `S=C1SCN(CC2CC2)CN1CC1CC1` was tested, and the EC50 was > 80 µM (inactive). With `Cc1ccc(C(=O)NC(C#N)=C(Cl)Cl)cc1` the EC50 was > 80 µM (inactive). In the case of `O=C(NCc1cccnc1)/C(=C\c1ccc(-c2ccc(Br)cc2)o1)S(=O)(=O)c1ccccc1`, the EC50 is reported as > 80 µM (inactive). `O=[N+]([O-])c1cc(-c2ncccn2)c([N+](=O)[O-])s1` was tested, and the EC50 was > 80 µM (inactive). In the case of `O=C(Cn1ncc(Cl)c(Cl)c1=O)c1ccc2c(c1)OCCO2`, the EC50 is reported as > 80 µM (inactive). In the case of `O=C(NC(=S)Nc1ccc(NC(=O)c2cccs2)cc1)c1cc2ccccc2o1`, the EC50 is reported as > 80 µM (inactive). `O=C(N/N=C/c1ccccn1)c1cc(-c2ccccc2)nc2ccccc12` was tested, and the EC50 was > 80 µM (inactive). In the case of `Cc1cc(C)cc(N2C(=O)NC(=O)/C(=C\c3cccn3-c3ccccc3)C2=O)c1`, the EC50 is reported as > 80 µM (inactive). `Oc1ccc(/C=N/N2CCN(C3c4ccccc4-c4ccccc43)CC2)cc1O` was tested, and the EC50 was 18.8 µM. In the case of `Cc1cc(C)c2c(c1)/C(=c1/sc3n(c1=O)CN(c1ccccc1)CN=3)C(=O)N2`, the EC50 is reported as “inactive”. For `COc1ccc(/C=N/Nc2cc(C)nc(-n3nc(C)cc3C)n2)c(OC)c1`, the EC50 was > 80 µM (inactive). In the case of `COc1ccc(C(=O)Sc2ccc(Cl)cc2)cc1OC`, the EC50 is reported as > 80 µM (inactive). With `COc1ccccc1N1C(=O)C=C(Sc2nc(C)cc(C)n2)C1=O` the EC50 was > 80 µM (inactive). `O=C(/C(=C/c1ccc(Cl)cc1)c1nc2ccccc2[nH]1)c1cccs1` was tested, and the EC50 was > 80 µM (inactive). For `O=c1[nH]c(=S)n(C2CC2)c(O)c1C=Nc1cccc(C(F)(F)F)c1`, the EC50 was > 80 µM (inactive). `O=C(c1cccs1)N(C(=O)c1cccs1)c1ccc(Br)cn1` showed an EC50 of 17.9 µM. With `CCN1CSC(=S)N(Cc2ccccc2)C1` the EC50 was > 80 µM (inactive). For `CCOC(=O)C1CCN(Cc2ccc(O)c3ncccc23)CC1`, the EC50 was > 80 µM (inactive). `COc1ccc(C2OC34CCCCC3C(C#N)(C#N)C2(C#N)C(=N)O4)cc1` (centres undefined) was tested, and the EC50 was > 80 µM (inactive). For `O=C(C#Cc1cccc([N+](=O)[O-])c1)c1ccccc1`, the EC50 was > 80 µM (inactive). For `COC(=O)c1ccc(COc2ccccc2/C=C(\C#N)C(=O)Nc2c(C)cccc2C)cc1`, the EC50 was “inactive”. `O=C(Nc1ccc(S(=O)(=O)N2CCOCC2)cc1)c1ccc([N+](=O)[O-])o1` was tested, and the EC50 was > 80 µM (inactive). `COC(=O)C(=Cc1ccc(OCc2ccc([N+](=O)[O-])cc2)c(OC)c1)C(=O)OC` was tested, and the EC50 was > 80 µM (inactive). `COc1ccc(C(c2c(C)[nH]n(C(N)=S)c2=O)C(C#N)C#N)cc1` (centres undefined) was tested, and the EC50 was > 80 µM (inactive). In the case of `Cc1cc(C(=O)c2ccc(C(C)(C)C)cc2)c(NC(=O)CCl)s1`, the EC50 is reported as > 80 µM (inactive). In the case of `Nc1nnnn1/N=C/C(Br)=C/c1ccccc1`, the EC50 is reported as > 80 µM (inactive). For `COc1cc(/C=C2\CC(C(C)(C)C)C/C(=C\c3cc(OC)c(OC)c(OC)c3)C2=O)cc(OC)c1OC` (centres undefined), the EC50 was > 80 µM (inactive). `Nc1cccc(-c2nc3cc(S(=O)(=O)c4ccc5oc(-c6cccc(N)c6)nc5c4)ccc3o2)c1` was tested, and the EC50 was > 80 µM (inactive). For `CC1(C)CCSC(/C=C/c2ccccc2)=N1`, the EC50 was > 80 µM (inactive). With `O=C1NC(=S)NC(=O)C1=Cc1ccc(Br)s1` the EC50 was > 80 µM (inactive). `O=C(C#Cc1ccccc1)c1cccc([N+](=O)[O-])c1` was tested, and the EC50 was > 80 µM (inactive). With `COc1ccc(/C=C\c2nc(=O)c3ccccc3o2)cc1` the EC50 was > 80 µM (inactive). `CN1C(=O)NC(=O)/C(=C\C=C\c2ccccc2[N+](=O)[O-])C1=O` was tested, and the EC50 was > 80 µM (inactive). In the case of `Cc1cc(O)c(-c2cc(O)c(C)cc2O)cc1O`, the EC50 is reported as > 80 µM (inactive). With `CC1=NOC(=O)/C1=C\c1ccc(-c2cccc(Cl)c2)o1` the EC50 was > 80 µM (inactive). For `C/C(=N/NC(=O)c1ccc(C(C)(C)C)cc1)c1ccccn1`, the EC50 was > 80 µM (inactive). With `Cc1cc(SCC(=O)N/N=C/c2ccc(O)c(O)c2)nc2ccccc12` the EC50 was “inactive”. `Cc1ccc(/C=C2\CCC3=C2OC(N)=C(C#N)C3c2ccc(C)cc2)cc1` (centres undefined) was tested, and the EC50 was > 80 µM (inactive).
